Reference: patent US20250326725A1, “PI4-Kinase Inhibitors and Methods of Using the Same” (The Board of Trustees of the Leland Stanford Junior …, priority 2019, published 2025)

What was measured:
[1] = tested on: HCV; assay: Anti-HCV assay (EC50); type: cell-based; conditions: Hepatitis C virus, read-out: HCV EC50
Procedure: Anti-HCV assay: Anti-HCV assays are performed as described by Cho et al. “Identification of a class of HCV inhibitors directed against the nonstructural protein NS4B.” Sci. Transl. Med. 2011; 2(15):15ra6.

[2] = Cell toxicity (CC50) in HRV assay; conditions: human, HRV CC50
[3] = tested on: EV71; assay: EV71 antiviral assay (EC50); type: cell-based, Enterovirus 71; conditions: Enterovirus A, EV71
[4] = Cell toxicity (CC50) in EV71 assay; conditions: EV71 CC50
[5] = tested on: EV68; assay: EV68 antiviral assay (EC50); type: cell-based
[6] = Cell toxicity (CC50) in EV68 assay; conditions: EV68 CC50

SMILES	EC50 [1]	CC50 [2]	EC50 [3]	CC50 [4]	EC50 [5]	CC50 [6]
COc1ccc(-c2sc(NC(C)(C)C3CCOCC3)nc2C)cc1S(=O)(=O)Nc1ccc(Br)nc1F [Compound S-2]	2.3 nM	33400 nM	0.8 nM	66600 nM	–	–
COc1ccc(-c2sc(NC(C)(C)C3CCOCC3)nc2C)cc1S(=O)(=O)NC1CCC(O)CC1 (stereo not drawn) [Compound S-5]	1.7 nM	57000 nM	0.8 nM	47200 nM	–	–
COc1ccc(-c2sc(NC(C)(C)C3CCOCC3)nc2C)cc1S(=O)(=O)Nc1ccc(F)cc1C [Compound S-8]	0.8 nM	8470 nM	0.3 nM	91900 nM	–	–
COc1ccc(-c2sc(NC(C)(C)C3CCOCC3)nc2C)cc1S(=O)(=O)NC1CCN(C(=O)OC(C)(C)C)CC1 [Compound S-9]	5 nM	100000 nM	4.8 nM	69300 nM	29 nM	100000 nM
COc1ccc(-c2sc(NC(C)(C)C3CCOCC3)nc2C)cc1S(=O)(=O)NC1CCS(=O)(=O)CC1 [Compound S-11]	57.1 nM	40700 nM	7.2 nM	26000 nM	3830 nM	43300 nM
COc1ccc(-c2sc(NC(C)(C)C3CCOCC3)nc2C)cc1S(=O)(=O)NC1CCN(C(C)=O)CC1 [Compound S-12]	17.5 nM	65900 nM	4.1 nM	53800 nM	106 nM	66200 nM
COc1ccc(-c2sc(NC(C)(C)C3CCOCC3)nc2C)cc1S(=O)(=O)NC1CCN(S(C)(=O)=O)CC1 [Compound S-13]	8.1 nM	102000 nM	1.3 nM	99400 nM	39.1 nM	102000 nM
COc1ccc(-c2sc(NC(C)(C)C3CCOCC3)nc2C)cc1S(=O)(=O)Nc1cccnc1C(F)(F)F [Compound S-15]	82 nM	100000 nM	65.3 nM	100000 nM	335 nM	63700 nM
COc1ccc(-c2sc(NC3(C4CCOCC4)CC3)nc2C)cc1S(=O)(=O)Nc1cccnc1C [Compound S-16]	683 nM	38300 nM	568 nM	21200 nM	2100 nM	39200 nM
COc1ccc(-c2sc(NC(C)(C)C3CCOCC3)nc2C)cc1S(=O)(=O)Nc1c(C)ncnc1C [Compound S-17]	10.7 nM	100000 nM	3.7 nM	99900 nM	25.5 nM	100000 nM
COc1ccc(-c2sc(NC(C)(C)C3CCOCC3)nc2C)cc1S(=O)(=O)Nc1cccnc1OC [Compound S-18]	11.9 nM	62100 nM	4.4 nM	43200 nM	14 nM	80000 nM
COc1ccc(-c2sc(NC3(C4CCOCC4)CC3)nc2C)cc1S(=O)(=O)Nc1ccccc1Cl [Compound S-19]	31.5 nM	37700 nM	15.8 nM	18300 nM	22100 nM	39400 nM
COc1ccc(-c2sc(NC(C)(C)C3CCOCC3)nc2C)cc1S(=O)(=O)NC1CCN(C(=O)OC(F)(F)F)CC1 [Compound S-20]	25.7 nM	49400 nM	3.6 nM	18900 nM	50.7 nM	51600 nM
COc1ccc(-c2sc(NC(C)(C)C3CCN(C(C)=O)CC3)nc2C)cc1S(=O)(=O)Nc1cccnc1C [Compound S-21]	2.4 nM	87600 nM	3.1 nM	91300 nM	10.7 nM	94800 nM
COc1ccc(-c2sc(NC(C)(C)C3CCOCC3)nc2C)cc1S(=O)(=O)Nc1c(F)cccc1CO [Compound S-22]	2.7 nM	15500 nM	0.8 nM	16500 nM	4.8 nM	19300 nM
COc1ccc(-c2sc(NC(C)(C)C3CCOCC3)nc2C)cc1S(=O)(=O)Nc1cncnc1C [Compound S-23]	138 nM	100000 nM	49 nM	100000 nM	796 nM	66100 nM
COc1ccc(-c2sc(NC(C)(C)C3CCOCC3)nc2C)cc1S(=O)(=O)Nc1ncc[nH]1 [Compound S-24]	3.7 nM	9620 nM	4.6 nM	73000 nM	11.1 nM	13400 nM
COc1ccc(-c2sc(NC(C)(C)C3CCOCC3)nc2C)cc1S(=O)(=O)Nc1ncccc1C [Compound S-25]	20.6 nM	24800 nM	14.1 nM	90700 nM	93.1 nM	24000 nM
COc1ccc(-c2sc(NC(C)(C)C3CCOCC3)nc2C)cc1S(=O)(=O)Nc1ccncc1C(F)(F)F [Compound S-26]	18.1 nM	38700 nM	2.3 nM	88700 nM	1410 nM	39100 nM
COc1ccc(-c2sc(NC(C)(C)C3CCOCC3)nc2C)cc1S(=O)(=O)Nc1cccc2[nH]cc(Br)c12 [Compound S-27]	2.3 nM	1410 nM	3.6 nM	6230 nM	5.9 nM	1760 nM
COc1ccc(-c2sc(NC(C)(C)C3CCOCC3)nc2C)cc1S(=O)(=O)Nc1c(C)cc(F)cc1F [Compound S-28]	4.9 nM	87400 nM	4.2 nM	100000 nM	9.1 nM	77600 nM
COc1ccc(-c2sc(NC(C)(C)C3CCOCC3)nc2C)cc1S(=O)(=O)Nc1nccn1C [Compound S-29]	5.7 nM	98700 nM	9.8 nM	100000 nM	39.1 nM	102000 nM
COc1ccc(-c2sc(NC(C)(C)C3CCOCC3)nc2C)cc1S(=O)(=O)Nc1ccc(F)cc1C(F)F [Compound S-30]	11.2 nM	3790 nM	2.2 nM	20200 nM	59.2 nM	6450 nM
COc1ccc(-c2sc(NC(C)(C)C3CCOCC3)nc2C)cc1S(=O)(=O)Nc1c(F)cccc1C(F)F [Compound S-31]	0.5 nM	52300 nM	0.2 nM	70600 nM	0.8 nM	61800 nM
COc1ccc(-c2oc(NC(C)(C)c3ccccc3)nc2C)cc1S(=O)(=O)Nc1cccnc1C [Compound S-33]	0.1 nM	30500 nM	0.1 nM	71300 nM	0.7 nM	5230 nM
COc1ccc(-c2sc(NC(C)(C)c3ncccn3)nc2C)cc1S(=O)(=O)Nc1c(C)cccc1F [Compound S-34]	1 nM	19400 nM	1.8 nM	100000 nM	6.8 nM	22100 nM
COc1ccc(-c2sc(NC(C)(C)c3ncccn3)nc2C)cc1S(=O)(=O)Nc1ccccc1C(F)(F)F [Compound S-35]	0.2 nM	100000 nM	0.1 nM	100000 nM	0.6 nM	100000 nM
COC(=O)N1CCC(NS(=O)(=O)c2cc(-c3sc(NC(C)(C)c4ccccc4)nc3C)ccc2OC)CC1 [Compound S-36]	0.1 nM	30500 nM	0.1 nM	71300 nM	0.7 nM	5230 nM
